# ChEMBL document CHEMBL1201862, “PubChem BioAssay data set” (2004)
#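 Protocol summary: plate cells (96-well), add compound at 5 concentrations, incubate 48 h, interpolate endpoints linearly. GI50: concentration for 50% inhibition of growth.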 Activity calls are given as the source filed them. Cut-off read from the data, not from the text of the source: active = GI50 up to about 1.1 µM and inactive = higher.
# Experiments:
# Test in all cases: NCI-60 cell line screen, 48 h
# HL-60 = test system: HL-60
# HCT-15 = test system: HCT-15
# HCT-116 = test system: HCT-116
# HT-29 = test system: HT-29
# DU-145 = test system: DU-145
# A498 = test system: A498
# SF-268 = test system: SF-268
# MCF7 = test system: MCF7
# MDA-MB-231 = test system: MDA-MB-231
# Hs-578T = test system: Hs-578T
# NCI/ADR-RES = test system: NCI/ADR-RES
# UO-31 = test system: UO-31
# T47D = test system: T47D
# OVCAR-5 = test system: OVCAR-5
# EKVX = test system: EKVX
# UACC-62 = test system: UACC-62
# ACHN = test system: ACHN
# HOP-62 = test system: HOP-62
# COLO 205 = test system: COLO 205
# HCC 2998 = test system: HCC 2998
SMILES,GI50 (HL-60),GI50 (HCT-15) [µM],GI50 (HCT-116),GI50 (HT-29),GI50 (DU-145),GI50 (A498),GI50 (SF-268),GI50 (MCF7),GI50 (MDA-MB-231),GI50 (Hs-578T),GI50 (NCI/ADR-RES),GI50 (UO-31),GI50 (T47D),GI50 (OVCAR-5),GI50 (EKVX),GI50 (UACC-62),GI50 (ACHN),GI50 (HOP-62),GI50 (COLO 205),GI50 (HCC 2998)
COc1cc(/C=C2\Cc3cc(OC)c(OC)cc3C2=O)cc(OC)c1,3.18 µM (inactive),5.26,21 µM (inactive),> 100 µM (inactive),> 100 µM (inactive),36.8 µM (inactive),45.9 µM (inactive),> 86.5 µM (inactive),36.3 µM (inactive),22 µM (inactive),0.904 µM (active),> 100 µM (inactive),> 100 µM (inactive),> 100 µM (inactive),> 100 µM (inactive),14.2 µM (inactive),> 58.2 µM (inactive),15.8 µM (inactive),> 46.7 µM (inactive),
COC(=O)/C=C/c1ccc(OP(=O)(O)O)c(OC)c1,,> 100,> 100 µM (inactive),> 100 µM (inactive),> 100 µM (inactive),> 100 µM (inactive),> 100 µM (inactive),> 100 µM (inactive),> 100 µM (inactive),> 100 µM (inactive),,> 100 µM (inactive),> 100 µM (inactive),> 100 µM (inactive),> 100 µM (inactive),> 100 µM (inactive),> 100 µM (inactive),> 100 µM (inactive),> 100 µM (inactive),> 100 µM (inactive)
O=C(C/N=C(\CN(c1ccccc1)c1ccccc1)Oc1ccc(Cl)cc1Cl)n1ccnc1,,> 100,> 100 µM (inactive),> 100 µM (inactive),> 100 µM (inactive),> 100 µM (inactive),> 100 µM (inactive),> 100 µM (inactive),> 100 µM (inactive),> 100 µM (inactive),> 100 µM (inactive),> 100 µM (inactive),> 100 µM (inactive),> 100 µM (inactive),> 100 µM (inactive),> 100 µM (inactive),> 100 µM (inactive),> 100 µM (inactive),> 100 µM (inactive),
CC(=O)c1ccc2c3c1[C@H]1O[C@H]1c1cccc(c1-3)[C@@H]1O[C@H]21,2.58 µM (inactive),0.959,1.74 µM (inactive),2.3 µM (inactive),2.37 µM (inactive),2.37 µM (inactive),1.51 µM (inactive),2.34 µM (inactive),2.14 µM (inactive),1.53 µM (inactive),1.98 µM (inactive),1.69 µM (inactive),2.15 µM (inactive),1.95 µM (inactive),1.9 µM (inactive),2.01 µM (inactive),1.94 µM (inactive),2.39 µM (inactive),1.71 µM (inactive),
Cc1cn(C2C=CC(COP(=O)(OCc3ccc([N+](=O)[O-])o3)N(C)CCCCCl)O2)c(=O)[nH]c1=O (configuration not stated),9.31 µM (inactive),16.6,8.65 µM (inactive),11.7 µM (inactive),13.3 µM (inactive),,7.57 µM (inactive),4.99 µM (inactive),12.1 µM (inactive),2.17 µM (inactive),33.8 µM (inactive),16.7 µM (inactive),1.57 µM (inactive),15.6 µM (inactive),,4.56 µM (inactive),15.3 µM (inactive),16 µM (inactive),2.4 µM (inactive),
Cc1ccc(SCC(OCn2cnc3c(Cl)nc(N)nc32)[C@H](C)F)cc1 (some centres not stated),28.3 µM (inactive),> 100,50.4 µM (inactive),82.2 µM (inactive),> 100 µM (inactive),,> 100 µM (inactive),29.9 µM (inactive),46.7 µM (inactive),> 100 µM (inactive),30.1 µM (inactive),59.3 µM (inactive),71.1 µM (inactive),> 100 µM (inactive),,> 100 µM (inactive),37.5 µM (inactive),> 100 µM (inactive),> 100 µM (inactive),> 100 µM (inactive)
O=P(OCc1ccccc1)(OCc1ccccc1)C(O)/C=C/c1ccccc1 (configuration not stated),19.8 µM (inactive),36.8,17.7 µM (inactive),21.3 µM (inactive),42.9 µM (inactive),17.9 µM (inactive),16.9 µM (inactive),27.6 µM (inactive),22.3 µM (inactive),17 µM (inactive),26.5 µM (inactive),26.6 µM (inactive),33.7 µM (inactive),30.6 µM (inactive),33.3 µM (inactive),15.8 µM (inactive),29.1 µM (inactive),21.8 µM (inactive),21.3 µM (inactive),
O=S(=O)(O)c1ccc(/N=N/c2ccc(/N=N/c3c(O)c(S(=O)(=O)O)cc4cc(S(=O)(=O)O)ccc34)cc2)cc1,> 100 µM (inactive),> 100,> 100 µM (inactive),> 100 µM (inactive),> 100 µM (inactive),,> 100 µM (inactive),> 100 µM (inactive),> 100 µM (inactive),> 100 µM (inactive),> 100 µM (inactive),> 100 µM (inactive),> 100 µM (inactive),> 100 µM (inactive),> 100 µM (inactive),> 100 µM (inactive),> 100 µM (inactive),> 100 µM (inactive),> 100 µM (inactive),> 100 µM (inactive)
CCOC(=O)C1(Cc2ccccc2)Cc2ccccc2C1=O (configuration not stated),19.1 µM (inactive),30.9,27.4 µM (inactive),23.6 µM (inactive),45.2 µM (inactive),,29.2 µM (inactive),33.8 µM (inactive),25.9 µM (inactive),35.1 µM (inactive),21.9 µM (inactive),14.6 µM (inactive),28.6 µM (inactive),30.4 µM (inactive),20.7 µM (inactive),20.8 µM (inactive),28.1 µM (inactive),35.2 µM (inactive),19.6 µM (inactive),34.4 µM (inactive)
CC(C)(C)C(=O)CP(=O)(O)O,> 100 µM (inactive),> 100,> 100 µM (inactive),> 100 µM (inactive),> 100 µM (inactive),> 100 µM (inactive),> 100 µM (inactive),> 100 µM (inactive),> 100 µM (inactive),> 100 µM (inactive),> 100 µM (inactive),,> 100 µM (inactive),> 100 µM (inactive),> 100 µM (inactive),> 100 µM (inactive),> 100 µM (inactive),> 100 µM (inactive),> 100 µM (inactive),
Cc1cc(-c2nc3c(O)cccc3s2)ccc1N,19.3 µM (inactive),25.4,20.4 µM (inactive),21.8 µM (inactive),> 100 µM (inactive),,21 µM (inactive),13 µM (inactive),22.9 µM (inactive),18.2 µM (inactive),19.9 µM (inactive),15.8 µM (inactive),74.5 µM (inactive),,20.2 µM (inactive),12.2 µM (inactive),17.2 µM (inactive),25.6 µM (inactive),38.7 µM (inactive),32.8 µM (inactive)
